The supplement of paper PMC10307832

How the values were obtained:
Assay in all cases: relative viability (nuclei count vs DMSO), 5 days (fraction); higher = more cells survive
[1] = compound: O=S(=O)(c1ccccc1)N(CC(F)(F)F)c1ccc(C(O)(C(F)(F)F)C(F)(F)F)cc1 + COc1cc2c(Oc3ccc(NC(=O)C4(C(=O)Nc5ccc(F)cc5)CC4)cc3F)ccnc2cc1OCCCN1CCOCC1 [Foretinib] (partner 0.25 µM)
Summary of the method: (§1)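 For relative viability, nuclei counts in treated wells were divided by those in vehicle wells. Lung cancer cell lines had been pin-tool dosed in 1536-well plates the day after seeding and cultured for 5 days, then fixed and stained in one step (final 0.05% Triton X-100, 1% formaldehyde, 1 ug/ml Hoechst) and imaged at 4×. Doses were one drug alone or a fixed anchor-drug dose plus five library-drug doses (not always all listed) in √10 steps, and values are duplicate-plate medians.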

[2] = compound: O=S(=O)(c1ccccc1)N(CC(F)(F)F)c1ccc(C(O)(C(F)(F)F)C(F)(F)F)cc1 + NC(=O)Nc1cc(-c2cccc(F)c2)sc1C(=O)N[C@H]1CCCNC1 [AZD7762] (partner 0.2 µM)
Summary of the method: as §1

[3] = compound: O=S(=O)(c1ccccc1)N(CC(F)(F)F)c1ccc(C(O)(C(F)(F)F)C(F)(F)F)cc1 + Nc1nc2[nH]cc(CCc3ccc(C(=O)N[C@@H](CCC(=O)O)C(=O)O)cc3)c2c(=O)[nH]1 [Pemetrexed] (partner 0.2 µM)
Summary of the method: as §1

[4] = compound: O=S(=O)(c1ccccc1)N(CC(F)(F)F)c1ccc(C(O)(C(F)(F)F)C(F)(F)F)cc1 + O=C(CCCCCCC(=O)Nc1ccccc1)NO [Vorinostat] (partner 1 µM)
Summary of the method: as §1

RO-3306 + Alpelisib = compound: C1=CC2=C(C=CC(=C2)C=C3C(=O)NC(=NCC4=CC=CS4)S3)N=C1 [RO-3306] + Cc1nc(NC(=O)N2CCC[C@H]2C(N)=O)sc1-c1ccnc(C(C)(C)C(F)(F)F)c1 [Alpelisib] (partner 2 µM)
Summary of the method: as §1

Cell Line	relative viability ([1]; first compound 0.8 µM)	relative viability ([1]; first compound 2.53 µM)	relative viability ([1]; first compound 8 µM)	relative viability ([2]; first compound 0.8 µM)	relative viability ([2]; first compound 2.53 µM)	relative viability ([2]; first compound 8 µM)	relative viability ([3]; first compound 0.8 µM)	relative viability ([3]; first compound 2.53 µM)	relative viability ([3]; first compound 8 µM)	relative viability ([4]; first compound 0.8 µM)	relative viability ([4]; first compound 2.53 µM)	relative viability ([4]; first compound 8 µM)	relative viability (RO-3306 + Alpelisib; first compound 0.01 µM)	relative viability (RO-3306 + Alpelisib; first compound 0.03162 µM)	relative viability (RO-3306 + Alpelisib; first compound 0.1 µM)	relative viability (RO-3306 + Alpelisib; first compound 0.3162 µM)	relative viability (RO-3306 + Alpelisib; first compound 1 µM)
HOP-62	1.08	1.09	0.881	0.649	0.517	0.598	0.238	0.271	0.243	0.716	0.508	0.522	1.02	0.992	0.933	1.04	0.986
IA-LM	1.08	1	1.12	–	–	–	–	–	–	0.917	0.757	0.553	0.895	0.56	0.725	0.708	0.948
LC-2-ad	1.06	0.912	0.867	0.89	0.779	0.702	0.274	0.286	0.244	0.734	0.657	0.602	1.07	0.832	0.846	0.887	0.812
LCLC-97TM1	0.914	0.928	0.805	–	0.241	0.234	–	0.16	0.179	–	0.562	0.567	–	0.243	0.243	0.27	0.179
LCLC-103H	0.973	0.758	0.81	0.841	0.826	0.948	0.457	0.465	0.467	0.859	0.746	0.78	0.919	0.976	1.03	0.962	0.948
NCI-H520	0.923	0.686	0.699	–	–	–	0.757	0.908	0.795	0.847	0.678	0.77	0.992	0.811	0.838	0.854	0.836
NCI-H522	–	–	–	1.13	0.824	0.859	1.03	1.11	0.877	0.833	0.973	0.959	–	–	–	–	–
NCI-H661	1.03	0.961	0.844	–	–	–	0.908	0.934	0.924	0.828	0.783	0.821	0.736	0.735	0.686	0.745	0.688
NCI-H727	0.83	0.846	0.867	0.549	0.604	0.526	–	–	–	1.18	0.853	1.03	0.622	0.531	0.517	0.716	0.786
NCI-H1299	1.1	1.07	1	–	–	–	–	–	–	–	–	–	1.07	0.808	1.05	1.07	1.12
NCI-H1563	0.922	0.827	0.893	–	–	–	0.737	0.749	0.75	–	–	–	0.992	0.906	0.823	1	0.898
NCI-H1623	0.802	0.805	0.851	–	–	–	–	–	–	–	–	–	–	–	–	–	–
